# According to patent US20160257997A1, “METHODS FOR WHOLE-CELL ANALYSIS OF GRAM-POSITIVE BACTERIA” (AdvanDx, Inc., priority 2009, published 2016):
# Tested on: MecA mRNA
# Assay: PNA FISH of MecA mRNA in permeabilized S. aureus (Examples 1-3)
# Assay type: cell-based
sequence,measurement,setting,value
"GCTATCGTGTCACAA (all peptide nucleic acid (PNA); fluorescein label, position not given here; listed as Staphylococcus aureus) [Probe 2, Flu-labeled PNA probe, methicillin-resistance]",fluorescent staining of bacteria (FITC filter),"MRSA 43300, oxacillin-induced, FIG. 1 Slides B-D, Probes 1-5 794 nM combined, Probe 2 750 nM, Probe 6 750 nM",Green fluorescent bacteria were observed
same,"fluorescent staining of bacteria (FITC filter), competition control","MRSA 43300, Probe 2 300 nM in the presence of 16.6-fold excess (5000 nM) of biotin labeled Probe 7, FIG. 1 Slide E",No signal was observed
